From patent US12077503B2, “Substituted cyclic amides and their use as herbicides” (FMC CORPORATION, priority 2015, dated 2024)

Tests used:
Assay type in all cases: in vivo
[1] = system: velvetleaf (Abutilon theophrasti); experiment: Test G Post-Emergence Protocol; settings: Abutilon theophrasti, post-emergence, 312 h
Method in brief: (§1)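 Pot-grown seedlings, 8 days old, raised in a glasshouse at 24/16 °C day/night with 14 h light and 65% humidity, were sprayed post-emergence with test compound in acetone/water (50:50) plus 0.5% Tween 20 at 15.625, 62.5 or 250 g/ha. Damage was scored visually 13 days later on a 0–100 scale (100 = total damage).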

[2] = system: giant foxtail (Setaria faberi); experiment: Test G Post-Emergence Protocol; settings: Setaria faberi, post-emergence, 312 h
Method in brief: as §1

corn (Zea mays) [3] = experiment: Test G Post-Emergence Protocol; settings: Zea mays, post-emergence, 312 h
Method in brief: as §1

[4] = system: barnyardgrass (Echinochloa crus-galli); experiment: Test G Post-Emergence Protocol; settings: Echinochloa crus-galli, post-emergence, 312 h
Method in brief: as §1

[5] = system: ivy-leaved morning glory (Ipomoea hederacea); experiment: Test G Post-Emergence Protocol; settings: Ipomoea, post-emergence, 312 h
Method in brief: as §1

[6] = system: redroot pigweed (Amaranthus retroflexus); experiment: Test G Post-Emergence Protocol; settings: Amaranthus retroflexus, post-emergence, 312 h
Method in brief: as §1

[7] = system: velvetleaf (Abutilon theophrasti); experiment: Test G Pre-Emergence Protocol; settings: Abutilon theophrasti, pre-emergence, 312 h, evaluated after 13 days
Method in brief: (§2)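 Test compound in 0.5% Tween 20 acetone/water (50:50) was applied at three rates (15.625, 62.5, 250 g/ha) to soil sown one day earlier. After 13 days plants were scored for injury, where 0 means unaffected and 100 means completely damaged.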

[8] = system: giant foxtail (Setaria faberi); experiment: Test G Pre-Emergence Protocol; settings: Setaria faberi, pre-emergence, 312 h, evaluated after 13 days
Method in brief: as §2

corn (Zea mays) [9] = experiment: Test G Pre-Emergence Protocol; settings: Zea mays, pre-emergence, 312 h, evaluated after 13 days
Method in brief: as §2

[10] = system: barnyardgrass (Echinochloa crus-galli); experiment: Test G Pre-Emergence Protocol; settings: Echinochloa crus-galli, pre-emergence, 312 h, evaluated after 13 days
Method in brief: as §2

[11] = system: ivy-leaved morning glory (Ipomoea hederacea); experiment: Test G Pre-Emergence Protocol; settings: Ipomoea, pre-emergence, 312 h, evaluated after 13 days
Method in brief: as §2

[12] = system: redroot pigweed (Amaranthus retroflexus); experiment: Test G Pre-Emergence Protocol; settings: Amaranthus retroflexus, pre-emergence, 312 h, evaluated after 13 days
Method in brief: as §2

SMILES: Cc1cc(Cl)ncc1NC(=O)[C@@H]1C(=O)N(C)C[C@H]1c1ccc(C(F)(F)F)cc1 (racemic) [Compound 1578]
- pest or weed control at 15.625 g/ha ([1]; 15.625 g ai/ha, evaluated after 13 days (100=total damage to plant; 0=no damage to plant), read-out: Velvetleaf damage rating): 20%
- pest or weed control at 62.5 g/ha ([1]; 62.5 g ai/ha, evaluated after 13 days, read-out: Velvetleaf damage rating (100=total damage to plant; 0=no damage to plant)): 10%
- pest or weed control at 250 g/ha ([1]; 250 g ai/ha, evaluated after 13 days, read-out: damage to plant, Velvetleaf (100=total damage to plant; 0=no damage to plant)): 20%
- pest or weed control at 15.625 g/ha ([2]; 15.625 g ai/ha, evaluated after 13 days (100=total damage to plant; 0=no damage to plant), read-out: Foxtail, Giant damage rating): 0%
- pest or weed control at 62.5 g/ha ([2]; 62.5 g ai/ha, evaluated after 13 days, read-out: Foxtail, Giant damage rating (100=total damage to plant; 0=no damage to plant)): 10%
- pest or weed control at 250 g/ha ([2]; 250 g ai/ha, evaluated after 13 days, read-out: damage to plant, Foxtail, Giant (100=total damage to plant; 0=no damage to plant)): 60%
- plant injury at 15.625 g/ha (corn (Zea mays) [3]; 15.625 g ai/ha, evaluated after 13 days (100=total damage to plant; 0=no damage to plant), read-out: Corn damage rating): 0%
- plant injury at 62.5 g/ha (corn (Zea mays) [3]; 62.5 g ai/ha, evaluated after 13 days, read-out: Corn damage rating (100=total damage to plant; 0=no damage to plant)): 0%
- plant injury at 250 g/ha (corn (Zea mays) [3]; 250 g ai/ha, evaluated after 13 days, read-out: damage to plant, Corn (100=total damage to plant; 0=no damage to plant)): 10%
- pest or weed control at 15.625 g/ha ([4]; 15.625 g ai/ha, evaluated after 13 days (100=total damage to plant; 0=no damage to plant), read-out: Barnyardgrass damage rating): 0%
- pest or weed control at 62.5 g/ha ([4]; 62.5 g ai/ha, evaluated after 13 days, read-out: Barnyardgrass damage rating (100=total damage to plant; 0=no damage to plant)): 20%
- pest or weed control at 250 g/ha ([4]; 250 g ai/ha, evaluated after 13 days, read-out: damage to plant, Barnyardgrass (100=total damage to plant; 0=no damage to plant)): 20%
- pest or weed control at 15.625 g/ha ([5]; 15.625 g ai/ha, evaluated after 13 days (100=total damage to plant; 0=no damage to plant), read-out: Morningglory, Ivy-leaved damage rating): 0%
- pest or weed control at 62.5 g/ha ([5]; 62.5 g ai/ha, evaluated after 13 days, read-out: Morningglory, Ivy-leaved damage rating (100=total damage to plant; 0=no damage to plant)): 10%
- pest or weed control at 250 g/ha ([5]; 250 g ai/ha, evaluated after 13 days, read-out: damage to plant, Morningglory, Ivy-leaved (100=total damage to plant; 0=no damage to plant)): 30%
- pest or weed control at 15.625 g/ha ([6]; 15.625 g ai/ha, evaluated after 13 days (100=total damage to plant; 0=no damage to plant), read-out: Pigweed, Redroot damage rating): 0%
- pest or weed control at 62.5 g/ha ([6]; 62.5 g ai/ha, evaluated after 13 days, read-out: Pigweed, Redroot damage rating (100=total damage to plant; 0=no damage to plant)): 20%
- pest or weed control at 250 g/ha ([6]; 250 g ai/ha, evaluated after 13 days, read-out: damage to plant, Pigweed, Redroot (100=total damage to plant; 0=no damage to plant)): 30%
- pest or weed control at 15.625 g/ha ([7]; 15.625 g ai/ha, read-out: Velvetleaf damage rating (100=total damage to plant; 0=no damage to plant)): 0%
- pest or weed control at 62.5 g/ha ([7]; 62.5 g ai/ha, 100=total damage to plant, 0=no damage to plant, read-out: plant damage rating, Velvetleaf): 0%
- pest or weed control at 250 g/ha ([7]; 250 g ai/ha, read-out: Velvetleaf damage rating (100=total damage to plant; 0=no damage to plant)): 10%
- pest or weed control at 15.625 g/ha ([8]; 15.625 g ai/ha, read-out: Foxtail, Giant damage rating (100=total damage to plant; 0=no damage to plant)): 0%
- pest or weed control at 62.5 g/ha ([8]; 62.5 g ai/ha, 100=total damage to plant, 0=no damage to plant, read-out: plant damage rating, Foxtail, Giant): 0%
- pest or weed control at 250 g/ha ([8]; 250 g ai/ha, read-out: Foxtail, Giant damage rating (100=total damage to plant; 0=no damage to plant)): 60%
- plant injury at 15.625 g/ha (corn (Zea mays) [9]; 15.625 g ai/ha, read-out: Corn damage rating (100=total damage to plant; 0=no damage to plant)): 0%
- plant injury at 62.5 g/ha (corn (Zea mays) [9]; 62.5 g ai/ha, 100=total damage to plant, 0=no damage to plant, read-out: plant damage rating, Corn): 0%
- plant injury at 250 g/ha (corn (Zea mays) [9]; 250 g ai/ha, read-out: Corn damage rating (100=total damage to plant; 0=no damage to plant)): 10%
- pest or weed control at 15.625 g/ha ([10]; 15.625 g ai/ha, read-out: Barnyard grass damage rating (100=total damage to plant; 0=no damage to plant)): 0%
- pest or weed control at 62.5 g/ha ([10]; 62.5 g ai/ha, 100=total damage to plant, 0=no damage to plant, read-out: plant damage rating, Barnyardgrass): 0%
- pest or weed control at 250 g/ha ([10]; 250 g ai/ha, read-out: Barnyardgrass damage rating (100=total damage to plant; 0=no damage to plant)): 0%
- pest or weed control at 15.625 g/ha ([11]; 15.625 g ai/ha, read-out: Morning-glory, Ivy-leaved damage rating (100=total damage to plant; 0=no damage to plant)): 0%
- pest or weed control at 62.5 g/ha ([11]; 62.5 g ai/ha, 100=total damage to plant, 0=no damage to plant, read-out: plant damage rating, Morningglory, Ivy-leaved): 0%
- pest or weed control at 250 g/ha ([11]; 250 g ai/ha, read-out: Morningglory, Ivy-leaved damage rating (100=total damage to plant; 0=no damage to plant)): 0%
- pest or weed control at 15.625 g/ha ([12]; 15.625 g ai/ha, read-out: Pigweed, Redroot damage rating (100=total damage to plant; 0=no damage to plant)): 0%
- pest or weed control at 62.5 g/ha ([12]; 62.5 g ai/ha, 100=total damage to plant, 0=no damage to plant, read-out: plant damage rating, Pigweed, Redroot): 0%
- pest or weed control at 250 g/ha ([12]; 250 g ai/ha, read-out: Pigweed, Redroot damage rating (100=total damage to plant; 0=no damage to plant)): 20%
